# Like-named read-outs stand apart in the source and are kept apart here.
# Key:
# [1] = Plasma pharmacology after IV injection in mice; details: IV dose of 5 mg/kg
# Experimental: (§4) Swiss Webster mice were used for pharmacokinetic studies of ITZA and its analogs. The dilation of the vein was accomplished by warming up the mice using a heat lamp. […] Mice were allowed to recover and blood samples were obtained through cardiac puncture under general anesthesia with Isoflurane/oxygen by vaporizer at various time points. Plasma was obtained by centrifugation of blood sample at 3,200 rpm for 5 min. at 4° C. Plasma proteins were precipitated by adding acetonitrile (twice the volume of plasma). The mixture was vortexed for 30 seconds and centrifuged for 5 min. at 14,000 rpm. The supernatant was saved and was injected into the HPLC to determine the respective drug concentrations.
# (§5) Unless specified, the analogous experiments were performed using POSA as an alternative to ITZA; Swiss Webster mice of both sexes with a body weight of 25-30 g were used for the in vivo pharmacology experiments (Harlan-Sprague-Dawley, Houston, Tex.). The animals were allowed a minimum of 7 days after arrival to accommodate to the new environment and allowed free access to commercial feed and tap water prior to and during the experimentation period. The animals were housed in an Association for the Assessment and Accreditation of Laboratory Animal Care International (AAALAC)-approved facility that meets the requirements of the USDA, NIH, and DHHS.
# (§6) The ITZA dose of 5 mg/kg BW was determined to be a suitable test dose that could be administered to the mice as a slow (3-4 min) IV bolus injection without requiring sedation, but could be performed with only minimal physical restraint of the animals in a standard funnel-type cage.
# (§7) The ITZA was formulated in the H3 solvent system described above as the preferred solvent to a stock concentration of 4-5 mg/mL and then diluted with NS (ratio 1:1) so the intended dose (5.0 mg/kg BW) could be injected in a tail vein in a total volume of approximately 100 μL. […] No sedative premedication was used for the mice in this experiment to avoid the possible induction of microsomal liver enzymes that could modify ITZA metabolism. Thus, the animals were unanesthetized, being only physically restrained during and immediately following the drug injection.
# (§8) Blood samples (0.5-1.0 mL) were drawn through cardiac puncture into heparinized tubes at selected time points prior to the drug infusion (“blank”), and from 5 min to 1 hour after drug injection for determination of ITZA concentrations, and for 5 min to about 7 hrs in the POSA experiment. The mice were exposed to 2% -4% isoflurane for general anesthesia. Blood samples were obtained through cardiac puncture and immediately deposited in heparinized microcentrifuge tubes.
# [2] = test system: Aspergillus fumigatus (ATCC strain 90906); test: Mold susceptibility test, MIC (CLSI M38A); format: cell-based
# Experimental: (§1) Two hyaline molds were tested with a standard read out at 48 hrs:
# (§2) Tested drug range: 75 μg/mL to 0.07 μg/mL
# To further determine the antifungal activity of the compounds in the new formulation systems we investigated the efficacy of the various agents against additional strains of mucor and Aspergillus (9/-16-9/20/2010) (The Rhizomucor was a clinical isolate from a patient isolate) and the Aspergillus fumigatus (ATCC strain 90906) used was a repeat from the previously described experiment. Again, the susceptibility tests were set-up using the standardized test method (CLSI M38A). The used drugs were provided in the described H3 final use-formulation that has been previously described. All drugs were diluted in RPMI-Mops medium (YeastOne, Sensititer Lot 151416SA, expiration date January 2011).
# As before two different molds were tested with a standard read out at 48 hr: • Drug dilution range 75 μg/mL to 0.07 μg/mL. • Aspergillus fumigatus (ATCC strain 90906) Zygomycete (Clinical Lab isolate, MDACC) […]
# [3] = Stability of ITZA/POSA in solvent vehicles (HPLC); format: physicochemical
# [4] = cited from earlier work
# [5] = mouse, in vivo, 5 mg/kg
# Experimental: as §4, §5, §6, §7, §8
# [6] = in vivo; details: both, Swiss Webster, mouse, plasma, iv, 5 mg/kg
# Experimental: as §4, §5, §6, §7, §8
# [7] = test system: Aspergillus fumigatus (Clinical Lab isolate); test: Mold susceptibility test, MIC; format: cell-based; details: tested range 75 μg/mL to 0.07 μg/mL, read out at 48 hrs
# Experimental: as §1, §2
# (§3) Briefly, susceptibility tests were set-up using a standardized methodology (CLSI […] standard). Drugs were diluted into RPMI-Mops medium (Yeast One Broth (Sensititer, product Y3462, Trek Diagnostic Systems, Cleveland, Ohio) Sensititer Lot number 151416SA-expiration date 2011-01). Two different strains of yeast were tested, the standardized evaluation/read out was performed at 24 hours after the start of each culture. The tests were repeated twice and all MIC (minimum inhibitory concentration) values are reported as an average of the three experiments.
# [8] = test system: Candida cruzei (ATCC strain 6258); test: Yeast susceptibility test, MIC (CLSI standard); format: cell-based; details: tested range 38 μg/mL to 0.03 μg/mL, read out at 24 hours, average of three experiments
# Experimental: as §3
# [9] = test system: Candida parapsilosis; test: Yeast susceptibility test, MIC (CLSI standard); format: cell-based; details: tested range 38 μg/mL to 0.03 μg/mL, read out at 24 hours, average of three experiments
# Experimental: as §3
smiles,measurement,setting,value
"CCC(C)n1ncn(-c2ccc(N3CCN(c4ccc(OCC5COC(Cn6cncn6)(c6ccc(Cl)cc6Cl)O5)cc4)CC3)cc2)c1=O (centres unmarked) [ITZA, itraconazole]",time plasma concentrations remain in the fungi-toxic range,[1],in excess of one hour
same,MIC,"[2]; Aspergillus fumigatus, ATCC90906, 48 h, tested range 75 μg/mL to 0.07 μg/mL, read out at 48 hrs, first experiment, read-out: MIC",1.2 µg/mL
same,MIC,"[2]; extended mold testing (repeat), H3 final use-formulation, range 75 μg/mL to 0.07 μg/mL, 48 hr",1.2 µg/mL
same,MIC,"[2]; extended mold testing (repeat), H3 final use-formulation, range 75 μg/mL to 0.07 μg/mL, 48 hr, listed as ITZA*",0.3 µg/mL
same,MIC,"[2]; tested range 75 μg/mL to 0.07 μg/mL, read out at 48 hrs, first experiment",0.6 µg/mL
same,Stability (% remaining),"[3]; 2-6 mg/mL in composite (prototype) solvent vehicles, more than three days or 72 hours at RT",more than 90%
same,Stability (%),"[3]; H3D, 4 mg/mL, 0 hr",100%
same,Stability (%),"[3]; H3D, 4 mg/mL, 2 hr",102%
same,Stability (%),"[3]; H3D, 4 mg/mL, 4 hr",101%
same,Stability (%),"[3]; H3D, 4 mg/mL, 8 hr",99%
same,Stability (%),"[3]; H3D, 4 mg/mL, 24 hr",97%
same,stability of ITZA,"[3]; H3D, day 0",100%
same,stability of ITZA,"[3]; H3D, day 1",94%
same,stability of ITZA,"[3]; H3D, day 2",95%
same,stability of ITZA,"[3]; H3D, day 3",93%
same,stability of ITZA,"[3]; H3D, day 4",94%
same,stability of ITZA,"[3]; H3D, day 5",98%
same,stability of ITZA,"[3]; H3D/5% dex., day 0",100%
same,stability of ITZA,"[3]; H3D/5% dex., day 1",100%
same,stability of ITZA,"[3]; H3D/5% dex., day 2",103%
same,stability of ITZA,"[3]; H3D/5% dex., day 4",99%
same,stability of ITZA,"[3]; H3D/5% dex., day 5",93%
same,stability of ITZA,"[3]; H3D/10% Dex., day 0",100%
same,stability of ITZA,"[3]; H3D/10% Dex., day 1",98%
same,stability of ITZA,"[3]; H3D/10% Dex., day 2",98%
same,stability of ITZA,"[3]; H3D/10% Dex., day 3",102%
same,stability of ITZA,"[3]; H3D/10% Dex., day 4",99%
same,stability of ITZA,"[3]; H3D/10% Dex., day 5",105%
same,stability of ITZA,"[3]; H3D/sal., day 0",100%
same,stability of ITZA,"[3]; H3D/sal., day 1",107%
same,stability of ITZA,"[3]; H3D/sal., day 2",107%
same,stability of ITZA,"[3]; H3D/sal., day 3",110%
same,stability of ITZA,"[3]; H3D/sal., day 5",90%
same,stability of ITZA,"[3]; H3G, day 0",100%
same,stability of ITZA,"[3]; H3G, day 1",103%
same,stability of ITZA,"[3]; H3G, day 2",100%
same,stability of ITZA,"[3]; H3G, day 3",89%
same,stability of ITZA,"[3]; H3G, day 4",103%
same,stability of ITZA,"[3]; H3G, day 5",106%
same,stability of ITZA,"[3]; H3G/5% Dex., day 0",100%
same,stability of ITZA,"[3]; H3G/5% Dex., day 1",102%
same,stability of ITZA,"[3]; H3G/5% Dex., day 2",109%
same,stability of ITZA,"[3]; H3G/5% Dex., day 3",94%
same,stability of ITZA,"[3]; H3G/5% Dex., day 4",99%
same,stability of ITZA,"[3]; H3G/5% Dex., day 5",42%
same,stability of ITZA,"[3]; H3G/10% dex., day 0",100%
same,stability of ITZA,"[3]; H3G/10% dex., day 2",102%
same,stability of ITZA,"[3]; H3G/10% dex., day 3",98%
same,stability of ITZA,"[3]; H3G/10% dex., day 4",107%
same,stability of ITZA,"[3]; H3G/10% dex., day 5",31%
same,stability of ITZA,"[3]; H3G/sal., day 0",100%
same,stability of ITZA,"[3]; H3G/sal., day 1",95%
same,stability of ITZA,"[3]; H3G/sal., day 2",94%
same,stability of ITZA,"[3]; H3G/sal., day 3",80%
same,stability of ITZA,"[3]; H3G/sal., day 4",70%
same,stability of ITZA,"[3]; H3G/sal., day 5",38%
same,Stability (%),"[3]; Solvent H3G, 0 hr",100%
same,Stability (%),"[3]; Solvent H3G, 2 hr",108%
same,Stability (%),"[3]; Solvent H3G, 4 hr",104%
same,Stability (%),"[3]; Solvent H3G, 6 hr",101%
same,Stability (%),"[3]; Solvent H3G, 8 hr",98%
same,Stability (%),"[3]; Solvent H3G, 24 hr",103%
same,Stability (%),"[3]; parent solvent H3, approximately 4 mg/mL, room temperature, 14 (2 w)",83%
same,Stability (%),"[3]; parent solvent H3, approximately 4 mg/mL, room temperature, 21 (3 w)",79%
same,Stability (%),"[3]; parent solvent H3, approximately 4 mg/mL, room temperature, 28 (4 w)",75%
same,Stability (%),"[3]; parent solvent H3, approximately 4 mg/mL, room temperature, 35 (5 w)",77%
same,Stability (%),"[3]; parent solvent H3, approximately 4 mg/mL, room temperature, 49 (7 w)",79%
same,Stability (%),"[3]; parent solvent H3, approximately 4 mg/mL, room temperature, 63 (9 w)",75%
same,Stability (%),"[3]; parent solvent H3, approximately 4 mg/mL, room temperature, 24 hrs",99%
same,Stability (%),"[3]; parent solvent H3, approximately 4 mg/mL, room temperature, 72 hrs",95%
same,Stability (%),"[3]; parent solvent H3, approximately 4 mg/mL, room temperature, 96 hrs",88%
same,Stability (%),"[3]; parent solvent H3, approximately 4 mg/mL, room temperature, 11 days",77%
same,Stability (%),"[3]; parent solvent H3, approximately 4 mg/mL, room temperature, time 0",100%
same,Stability (%),"[3]; solvent H3, approximately 4 mg/mL, 40° C., 3 hr",104%
same,Stability (%),"[3]; solvent H3, approximately 4 mg/mL, 40° C., 6 hr",98%
same,Stability (%),"[3]; solvent H3, approximately 4 mg/mL, 40° C., 24 hr",92%
same,Stability (%),"[3]; solvent H3, approximately 4 mg/mL, 40° C., 30 hr",89%
same,Stability (%),"[3]; solvent H3, approximately 4 mg/mL, 40° C., 48 hr",84%
same,Stability (%),"[3]; solvent H3, approximately 4 mg/mL, 40° C., 54 hr",79%
same,Stability (%),"[3]; solvent H3, approximately 4 mg/mL, 40° C., 78 hr",80%
same,Stability (%),"[3]; solvent H3, approximately 4 mg/mL, 40° C., 4 days",78%
same,Stability (%),"[3]; solvent H3, approximately 4 mg/mL, 40° C., 7 days",70%
same,Stability (%),"[3]; solvent H3, approximately 4 mg/mL, 40° C., 8 days",70%
same,Stability (%),"[3]; solvent H3, approximately 4 mg/mL, 40° C., 9 days",58%
same,Stability (%),"[3]; solvent H3, approximately 4 mg/mL, 40° C., 14 days",56%
same,Stability (%),"[3]; solvent H3, approximately 4 mg/mL, 40° C., 16 days",55%
same,Stability (%),"[3]; solvent H3, approximately 4 mg/mL, 40° C., 18 days",54%
same,Stability (%),"[3]; solvent H3, approximately 4 mg/mL, 40° C., 21 days",45%
same,Stability (%),"[3]; solvent H3, approximately 4 mg/mL, 40° C., 25 days",37%
same,Stability (%),"[3]; solvent H3, approximately 4 mg/mL, 40° C., 28 days",30%
same,Stability (%),"[3]; solvent H3, approximately 4 mg/mL, 40° C., 32 days",24%
same,Stability (%),"[3]; solvent H3/normal saline (1:1), approximately 2.0 mg/mL, RT, 0 hrs",100%
same,Stability (%),"[3]; solvent H3/normal saline (1:1), approximately 2.0 mg/mL, RT, 2 hrs",97%
same,Stability (%),"[3]; solvent H3/normal saline (1:1), approximately 2.0 mg/mL, RT, 4 hrs",97%
same,Stability (%),"[3]; solvent H3/normal saline (1:1), approximately 2.0 mg/mL, RT, 8 hrs",102%
same,Stability (%),"[3]; solvent H3/normal saline (1:1), approximately 2.0 mg/mL, RT, 14 hrs",109%
same,Stability (%),"[3]; solvent H3/normal saline (1:1), approximately 2.0 mg/mL, RT, 24 hrs",93%
same,known plasma half-life,"[4]; literature (Ref 24, 32, 42, 45)",600 to 660 min
same,bioavailability,"[4]; oral preparations, literature",approximately 50%
same,tolerability of IV injection (in words),[5],well accepted
same,half-life,[6],~30 min
same,MIC,"[7]; Aspergillus fumigatus, 48 h, read-out: MIC",0.6 µg/mL
same,MIC,[7],0.3 µg/mL
same,MIC,[8],0.07 µg/mL
same,MIC,[8]; listed as ITZA*,0.15 µg/mL
same,MIC,[9],0.03 µg/mL
same,MIC,[9]; listed as ITZA*,0.07 µg/mL
